Test results published in patent US9981972B2, “N-hydroxy bicyclic hydantoin carbamates as tools for identification of serine hydrolase targets” (ABIDE THERAPEUTICS, INC., priority 2014, dated 2018).

Columns and labels:
Assay in all cases: Gel-based competitive ABPP in vitro, mouse brain membrane proteome
Format in all cases: biochemical
Conditions in all cases: mouse brain (mem) proteome
[1] = target: T1, PLA2G7 (Mus musculus, UniProt Q60963)
T1 construct: from tissue; host or cells: mouse brain, membrane fraction
T1 sequence (Q60963 22-440): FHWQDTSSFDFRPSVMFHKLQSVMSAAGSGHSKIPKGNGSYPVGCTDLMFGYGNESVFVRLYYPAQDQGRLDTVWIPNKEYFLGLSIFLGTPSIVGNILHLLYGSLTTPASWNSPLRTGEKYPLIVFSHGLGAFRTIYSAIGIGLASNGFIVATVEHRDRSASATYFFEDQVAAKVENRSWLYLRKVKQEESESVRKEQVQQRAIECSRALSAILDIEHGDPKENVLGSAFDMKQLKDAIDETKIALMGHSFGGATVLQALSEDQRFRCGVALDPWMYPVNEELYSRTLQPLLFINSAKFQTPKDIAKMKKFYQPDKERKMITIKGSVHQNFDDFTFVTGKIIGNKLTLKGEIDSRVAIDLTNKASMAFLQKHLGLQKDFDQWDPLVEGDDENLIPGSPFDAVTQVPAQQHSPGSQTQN
Description: (§1) Assay Overview: The purpose of this assay was to determine whether test compounds can inhibit LYPLA1 and LYPLA2 in a complex proteomic lysate and to assess anti-target inhibition using a competitive activity-based proteomic profiling (ABPP) assay. In this assay, a complex proteome endogenously expressing LYPLA1/2 was incubated with test compound followed by reaction with a rhodamine-conjugated fluorophosphonate (FP-Rh) serine-hydrolase specific activity-based probe. The reaction products were separated by SDS-PAGE and visualized in-gel using a flatbed fluorescence scanner. The percentage activity remaining was determined by measuring the integrated optical density of the bands. […] Percent inhibition was calculated relative to a DMSO (no compound) control.
(§2) Protocol Summary: Mouse brain membrane proteome (50 μL reaction volume, 1 mg/mL in DPBS) was treated with 0.1-100 μM test compound (1 μL of a 50× stock in DMSO) for 30 minutes at 37° C. FP-Rh (1 μL of 50× stock in DMSO, Thermo #88318) was added to a final concentration of 2 μM. The reactions were incubated for 30 minutes at 25° C., quenched with 16 μL 4×SDS-PAGE loading buffer (reducing), separated by SDS-PAGE and visualized by in-gel fluorescent scanning. The percentage activity remaining was determined by measuring the integrated optical density of the bands relative to a DMSO-only (no compound) control. Assay Cutoff: Compounds with ≥50% inhibition of targets at 1 μM test compound concentration were considered active.

[2] = target: T2, ABHD3 (Mus musculus, UniProt Q91ZH7)
T2 construct: from tissue; host or cells: mouse brain, membrane fraction
T2 sequence (Q91ZH7 1-411): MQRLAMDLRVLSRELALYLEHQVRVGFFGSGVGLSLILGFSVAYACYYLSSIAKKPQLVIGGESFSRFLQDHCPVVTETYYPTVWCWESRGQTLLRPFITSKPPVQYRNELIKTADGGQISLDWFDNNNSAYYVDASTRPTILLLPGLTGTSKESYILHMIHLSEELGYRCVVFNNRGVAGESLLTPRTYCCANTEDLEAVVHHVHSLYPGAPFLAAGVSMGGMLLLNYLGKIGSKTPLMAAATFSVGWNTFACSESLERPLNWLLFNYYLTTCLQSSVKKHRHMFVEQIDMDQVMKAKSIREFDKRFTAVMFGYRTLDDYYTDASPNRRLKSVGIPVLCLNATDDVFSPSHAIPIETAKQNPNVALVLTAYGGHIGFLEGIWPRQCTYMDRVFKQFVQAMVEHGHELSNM
Description: as §1, §2

[3] = target: T3, ABHD12 (Mus musculus, UniProt Q99LR1)
T3 construct: from tissue; host or cells: mouse brain, membrane fraction
T3 sequence (Q99LR1 1-398): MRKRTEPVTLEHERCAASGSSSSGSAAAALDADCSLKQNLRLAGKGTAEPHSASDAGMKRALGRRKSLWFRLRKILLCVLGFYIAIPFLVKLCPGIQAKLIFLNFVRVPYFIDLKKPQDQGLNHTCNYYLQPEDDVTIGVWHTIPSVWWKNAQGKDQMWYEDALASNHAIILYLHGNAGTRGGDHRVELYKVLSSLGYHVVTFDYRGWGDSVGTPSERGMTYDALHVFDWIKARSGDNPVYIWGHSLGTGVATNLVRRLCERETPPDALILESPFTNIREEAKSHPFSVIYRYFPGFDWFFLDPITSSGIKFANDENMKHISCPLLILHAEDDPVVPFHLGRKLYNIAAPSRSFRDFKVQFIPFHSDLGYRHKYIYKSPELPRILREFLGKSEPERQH
Description: as §1, §2

Row | PLA2G7 in vitro enzyme activity, % @ 10 μM [1] | ABHD3 in vitro enzyme activity, % @ 10 μM [2] | ABHD12 in vitro enzyme activity, % @ 10 μM [3] | PLA2G7 in vitro enzyme activity, % @ 1 μM [1] | SMILES
1 | – | 0% @ | 0% @ | 50% @ | COc1ccc(N2CCN(C(=O)ON3C(=O)C4CN(CC5CCN(Cc6ccccc6)CC5)CCN4C3=O)CC2)cc1 (stereo not drawn) [Compound 52, 7-((1-benzylpiperidin-4-yl)methyl)-1,3-dioxo-hexahydroimidazo[1,5-a]pyrazin-2(3H)-yl 4-(4-methoxyphenyl)piperazine-1-carboxylate]
2 | – | 0% @ | 0% @ | 100% @ | C#CCOc1ccc(N2CCN(C(=O)ON3C(=O)[C@H]4CN(CC5CCN(Cc6ccccc6)CC5)CCN4C3=O)CC2)cc1 [Compound 47, (R)-7-((1-benzylpiperidin-4-yl)methyl)-1,3-dioxo-hexahydroimidazo[1,5-a]pyrazin-2(3H)-yl 4-(4-(prop-2-ynyloxy)phenyl)piperazine-1-carboxylate]
3 | – | 0% @ | 0% @ | 100% @ | COc1ccc(N2CCN(C(=O)ON3C(=O)[C@@H]4CN(CC5CCN(Cc6ccccc6)CC5)CCN4C3=O)CC2)cc1 [Compound 42, (S)-7-((1-benzylpiperidin-4-yl)methyl)-1,3-dioxo-hexahydroimidazo[1,5-a]pyrazin-2(3H)-yl 4-(4-methoxyphenyl)piperazine-1-carboxylate]
4 | – | 0% @ | 0% @ | 100% @ | COc1ccc(N2CCN(C(=O)ON3C(=O)[C@H]4CN(CC5CCN(Cc6ccccc6)CC5)CCN4C3=O)CC2)cc1 [Compound 43, (R)-7-((1-benzylpiperidin-4-yl)methyl)-1,3-dioxo-hexahydroimidazo[1,5-a]pyrazin-2(3H)-yl 4-(4-methoxyphenyl)piperazine-1-carboxylate]
5 | – | 0% @ | 0% @ | 100% @ | C#CCOc1ccc(N2CCN(C(=O)ON3C(=O)[C@@H]4CN(CC5CCN(Cc6ccccc6)CC5)CCN4C3=O)CC2)cc1 [Compound 46, (S)-7-((1-benzylpiperidin-4-yl)methyl)-1,3-dioxo-hexahydroimidazo[1,5-a]pyrazin-2(3H)-yl 4-(4-(prop-2-ynyloxy)phenyl)piperazine-1-carboxylate]

The next lines start with the compound.

Row | SMILES | PLA2G7 in vitro enzyme activity, % @ 10 μM [1] | ABHD3 in vitro enzyme activity, % @ 10 μM [2] | ABHD12 in vitro enzyme activity, % @ 10 μM [3] | PLA2G7 in vitro enzyme activity, % @ 1 μM [1]
6 | O=C(ON1C(=O)[C@@H]2CN(C(=O)N3CCOCC3)CCN2C1=O)N1CCN(CCc2ccc(Cl)cc2)CC1 [Compound 41, (S)-7-(morpholine-4-carbonyl)-1,3-dioxo-hexahydroimidazo[1,5-a]pyrazin-2(3H)-yl 4-(4-chlorophenethyl)piperazine-1-carboxylate] | 0% @ | 0% @ | 0% @ | –
7 | C#Cc1ccc(CCC2CCN(C(=O)ON3C(=O)[C@@H]4CN(C(=O)N5CCOCC5)CCN4C3=O)CC2)cc1 [Compound 48, (S)-7-(morpholine-4-carbonyl)-1,3-dioxo-hexahydroimidazo[1,5-a]pyrazin-2(3H)-yl 4-(4-ethynylphenethyl)piperidine-1-carboxylate] | 75% @ | 0% @ | 50% @ | –
8 | C#Cc1ccc(CCC2CCN(C(=O)ON3C(=O)[C@H]4CN(C(=O)N5CCOCC5)CCN4C3=O)CC2)cc1 [Compound 49, (R)-7-(morpholine-4-carbonyl)-1,3-dioxo-hexahydroimidazo[1,5-a]pyrazin-2(3H)-yl 4-(4-ethynylphenethyl)piperidine-1-carboxylate] | 100% @ | 0% @ | 0% @ | –
9 | O=C(ON1C(=O)[C@@H]2CN(Cc3ccc(Br)cc3)CCN2C1=O)N1CCC(CCc2ccc(Cl)cc2)CC1 [Compound 40, (S)-7-(4-bromobenzyl)-1,3-dioxohexahydroimidazo[1,5-a]pyrazin-2(3H)-yl4-(4-chlorophenethyl)piperidine-1-carboxylate] | 100% @ | 0% @ | 0% @ | –
10 | C#Cc1ccc(CCC2CCN(C(=O)ON3C(=O)C4CN(C(=O)N5CCOCC5)CCN4C3=O)CC2)cc1 (stereo not drawn) [Compound 53, 7-(morpholine-4-carbonyl)-1,3-dioxo-hexahydroimidazo[1,5-a]pyrazin-2(3H)-yl 4-(4-ethynylphenethyl)piperidine-1-carboxylate] | 0% @ | 0% @ | 50% @ | –
11 | O=C(ON1C(=O)[C@H]2CN(C(=O)N3CCOCC3)CCN2C1=O)N1CCC(CCc2ccc(Cl)cc2)CC1 [Compound 51, (R)-7-(morpholine-4-carbonyl)-1,3-dioxohexahydroimidazo[1,5-a]pyrazin-2(3H)-yl 4-(4-chloro-phenethyl)piperidine-1-carboxylate] | 100% @ | 0% @ | 0% @ | –
12 | C#CCOc1ccc(N2CCN(C(=O)ON3C(=O)[C@@H]4CN(Cc5ccc(Oc6ccccc6)cc5)CCN4C3=O)CC2)cc1 [Compound 44, (S)-1,3-dioxo-7-(4-phenoxybenzyl)-hexahydroimidazo[1,5-a]pyrazin-2(3H)-yl 4-(4-(prop-2-ynyloxy)phenyl)piperazine-1-carboxylate] | – | 0% @ | 0% @ | 100% @
13 | O=C(ON1C(=O)[C@@H]2CN(C(=O)N3CCOCC3)CCN2C1=O)N1CCC(CCc2ccc(Cl)cc2)CC1 [Compound 50, (S)-7-(morpholine-4-carbonyl)-1,3-dioxohexahydroimidazo[1,5-a]pyrazin-2(3H)-yl 4-(4-chloro-phenethyl)piperidine-1-carboxylate] | 100% @ | 0% @ | 0% @ | –
14 | C#CCOc1ccc(N2CCN(C(=O)ON3C(=O)[C@H]4CN(Cc5ccc(Oc6ccccc6)cc5)CCN4C3=O)CC2)cc1 [Compound 45, (R)-1,3-dioxo-7-(4-phenoxybenzyl)-hexahydroimidazo[1,5-a]pyrazin-2(3H)-yl 4-(4-(prop-2-ynyloxy)phenyl)piperazine-1-carboxylate] | – | 75% @ | 0% @ | 100% @
